Measurements as given in ChEMBL document CHEMBL4371069, “Click chemistry for improvement in selectivity of quinazoline-based kinase inhibitors for mutant epidermal growth factor receptors” (Bioorg Med Chem Lett, 2019).

Tests used:
PC-9 = experiment: Antiproliferative activity against human PC9 cells harboring EGFR exon-19 del mutant after 72 hrs by EZ-Cytox assay; assay type: functional, cell-based; details: PC-9, 72 h
CYP2E1 = CYP2E1 (Homo sapiens, UniProt P05181); experiment: Inhibition of CYP2E1 in human liver microsomes assessed as residual activity at 10 uM using chlorzoxazone as substrate preincubated for 5 mins followed by NADPH addition and measured after 15 mins by LC-MS/MS analysis relative to control; assay type: ADME; details: probe chlorzoxazone, read-out: Activity
CYP2E1, sequence (P05181 whole entry): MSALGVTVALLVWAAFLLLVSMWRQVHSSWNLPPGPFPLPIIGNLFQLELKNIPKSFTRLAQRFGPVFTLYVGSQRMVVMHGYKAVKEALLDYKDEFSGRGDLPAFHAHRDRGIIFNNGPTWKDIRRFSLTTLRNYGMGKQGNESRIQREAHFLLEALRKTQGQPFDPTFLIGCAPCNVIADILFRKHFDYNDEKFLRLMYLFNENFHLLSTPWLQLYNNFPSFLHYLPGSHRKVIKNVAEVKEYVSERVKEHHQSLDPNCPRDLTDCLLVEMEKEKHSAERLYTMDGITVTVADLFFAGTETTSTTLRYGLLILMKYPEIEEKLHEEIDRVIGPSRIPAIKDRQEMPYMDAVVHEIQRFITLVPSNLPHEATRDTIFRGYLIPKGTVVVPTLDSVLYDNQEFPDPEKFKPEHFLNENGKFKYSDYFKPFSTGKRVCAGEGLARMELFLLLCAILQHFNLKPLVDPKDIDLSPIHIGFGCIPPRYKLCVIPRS

CYP2C19 = CYP2C19 (Homo sapiens, UniProt P33261); experiment: Inhibition of CYP2C19 in human liver microsomes assessed as residual activity at 10 uM using S-mephenytoin as substrate preincubated for 5 mins followed by NADPH addition and measured after 15 mins by LC-MS/MS analysis relative to control; assay type: ADME; details: probe S-mephenytoin, read-out: Activity
CYP2C19, sequence (P33261 whole entry): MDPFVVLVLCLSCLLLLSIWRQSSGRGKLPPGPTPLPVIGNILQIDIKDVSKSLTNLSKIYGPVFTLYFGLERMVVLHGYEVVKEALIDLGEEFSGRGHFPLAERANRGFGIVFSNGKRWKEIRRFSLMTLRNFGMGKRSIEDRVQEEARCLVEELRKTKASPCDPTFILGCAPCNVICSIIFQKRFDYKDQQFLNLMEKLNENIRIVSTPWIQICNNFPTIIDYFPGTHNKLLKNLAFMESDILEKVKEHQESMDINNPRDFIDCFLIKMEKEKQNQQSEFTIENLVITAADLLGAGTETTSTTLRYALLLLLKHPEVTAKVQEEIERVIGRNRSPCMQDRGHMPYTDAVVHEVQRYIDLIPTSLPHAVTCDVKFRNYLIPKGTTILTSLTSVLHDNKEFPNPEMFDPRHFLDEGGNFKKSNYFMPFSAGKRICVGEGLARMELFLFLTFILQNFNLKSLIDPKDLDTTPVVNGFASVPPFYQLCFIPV

SK-BR-3 = experiment: Antiproliferative activity against HER2-dependant human SKBR3 cells after 72 hrs by EZ-Cytox assay; assay type: ADME, cell-based; details: SK-BR-3, 72 h
hERG (KCNH2) = hERG (KCNH2) (Homo sapiens, UniProt Q12809); experiment: Inhibition of human ERG expressed in HEK cell at 10 uM at -70 mV holding potential by patch clamp method relative to control; details: HEK cells that express hERG
CYP1A2 = target: T1, CYP1A2 (Homo sapiens, UniProt P05177); experiment: Inhibition of CYP1A2 in human liver microsomes assessed as residual activity at 10 uM using phenacetin as substrate preincubated for 5 mins followed by NADPH addition and measured after 15 mins by LC-MS/MS analysis relative to control; assay type: ADME; details: probe phenacetin, read-out: Activity
T1 sequence (P05177 whole entry): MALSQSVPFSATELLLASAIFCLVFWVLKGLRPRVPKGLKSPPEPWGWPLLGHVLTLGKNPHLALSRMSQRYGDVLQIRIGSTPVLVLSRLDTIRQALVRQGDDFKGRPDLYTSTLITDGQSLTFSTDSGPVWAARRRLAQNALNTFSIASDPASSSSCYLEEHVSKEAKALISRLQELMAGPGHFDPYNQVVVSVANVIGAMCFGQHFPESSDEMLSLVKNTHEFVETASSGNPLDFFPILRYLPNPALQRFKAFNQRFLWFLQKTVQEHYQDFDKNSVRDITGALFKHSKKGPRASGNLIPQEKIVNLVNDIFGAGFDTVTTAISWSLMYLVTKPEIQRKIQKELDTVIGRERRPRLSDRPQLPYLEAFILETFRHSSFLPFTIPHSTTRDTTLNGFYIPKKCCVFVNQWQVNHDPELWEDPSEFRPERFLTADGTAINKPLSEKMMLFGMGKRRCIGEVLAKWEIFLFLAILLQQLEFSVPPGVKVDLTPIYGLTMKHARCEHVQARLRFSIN

[1] = target: Epidermal growth factor receptor (Homo sapiens, UniProt P00533); assay type: ADME, cell-based, Sf21
Epidermal growth factor receptor (Homo sapiens, UniProt P00533), sequence (P00533 whole entry): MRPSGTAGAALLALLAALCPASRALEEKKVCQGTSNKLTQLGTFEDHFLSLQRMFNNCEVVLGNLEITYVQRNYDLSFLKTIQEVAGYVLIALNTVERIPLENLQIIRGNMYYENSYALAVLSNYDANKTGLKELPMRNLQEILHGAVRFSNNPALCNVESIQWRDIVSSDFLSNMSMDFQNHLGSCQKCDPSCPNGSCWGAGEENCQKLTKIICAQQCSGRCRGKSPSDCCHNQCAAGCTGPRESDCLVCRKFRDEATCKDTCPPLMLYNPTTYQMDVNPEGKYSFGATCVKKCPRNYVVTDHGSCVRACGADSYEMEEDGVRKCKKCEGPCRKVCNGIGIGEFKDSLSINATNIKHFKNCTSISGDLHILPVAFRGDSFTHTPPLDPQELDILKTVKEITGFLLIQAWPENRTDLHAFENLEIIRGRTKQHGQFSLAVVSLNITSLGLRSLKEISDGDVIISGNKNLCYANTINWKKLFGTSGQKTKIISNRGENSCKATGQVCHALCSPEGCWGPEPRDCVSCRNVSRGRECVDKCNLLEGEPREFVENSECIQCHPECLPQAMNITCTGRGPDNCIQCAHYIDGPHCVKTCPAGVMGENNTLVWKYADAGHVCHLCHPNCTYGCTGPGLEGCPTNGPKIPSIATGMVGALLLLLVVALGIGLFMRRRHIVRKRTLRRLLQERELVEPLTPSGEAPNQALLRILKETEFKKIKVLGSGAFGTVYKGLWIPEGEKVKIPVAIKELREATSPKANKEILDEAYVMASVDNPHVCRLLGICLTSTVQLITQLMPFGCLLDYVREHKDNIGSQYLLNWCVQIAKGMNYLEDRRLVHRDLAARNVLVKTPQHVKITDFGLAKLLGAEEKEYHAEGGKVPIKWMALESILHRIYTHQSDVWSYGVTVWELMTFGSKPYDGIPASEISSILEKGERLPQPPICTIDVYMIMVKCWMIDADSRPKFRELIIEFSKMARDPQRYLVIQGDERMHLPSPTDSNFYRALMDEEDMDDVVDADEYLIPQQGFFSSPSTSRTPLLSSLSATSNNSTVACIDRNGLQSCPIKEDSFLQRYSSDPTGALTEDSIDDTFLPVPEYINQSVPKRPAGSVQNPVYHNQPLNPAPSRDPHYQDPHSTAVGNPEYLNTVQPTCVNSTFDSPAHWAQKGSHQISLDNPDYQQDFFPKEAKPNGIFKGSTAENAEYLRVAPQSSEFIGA
Description: Inhibition of human N-terminal GST-tagged EGFR kinase domain (696 to end residues) expressed in baculovirus infected sf21 cells using poly(Glu, Tyr) 4:1 as substrate

HepG2 = experiment: Cytotoxicity against human HepG2 cells after 24 hrs by LDH release assay; assay type: cell-based; details: HepG2, 24 h
[2] = target: Receptor tyrosine-protein kinase erbB-2 (Homo sapiens, UniProt P04626); experiment: Inhibition of human C-terminal His6-tagged ERBB2 (676 to end residues) expressed in baculovirus infected sf21 cells using poly(Glu, Tyr) 4:1 as substrate
Receptor tyrosine-protein kinase erbB-2, sequence (P04626 whole entry): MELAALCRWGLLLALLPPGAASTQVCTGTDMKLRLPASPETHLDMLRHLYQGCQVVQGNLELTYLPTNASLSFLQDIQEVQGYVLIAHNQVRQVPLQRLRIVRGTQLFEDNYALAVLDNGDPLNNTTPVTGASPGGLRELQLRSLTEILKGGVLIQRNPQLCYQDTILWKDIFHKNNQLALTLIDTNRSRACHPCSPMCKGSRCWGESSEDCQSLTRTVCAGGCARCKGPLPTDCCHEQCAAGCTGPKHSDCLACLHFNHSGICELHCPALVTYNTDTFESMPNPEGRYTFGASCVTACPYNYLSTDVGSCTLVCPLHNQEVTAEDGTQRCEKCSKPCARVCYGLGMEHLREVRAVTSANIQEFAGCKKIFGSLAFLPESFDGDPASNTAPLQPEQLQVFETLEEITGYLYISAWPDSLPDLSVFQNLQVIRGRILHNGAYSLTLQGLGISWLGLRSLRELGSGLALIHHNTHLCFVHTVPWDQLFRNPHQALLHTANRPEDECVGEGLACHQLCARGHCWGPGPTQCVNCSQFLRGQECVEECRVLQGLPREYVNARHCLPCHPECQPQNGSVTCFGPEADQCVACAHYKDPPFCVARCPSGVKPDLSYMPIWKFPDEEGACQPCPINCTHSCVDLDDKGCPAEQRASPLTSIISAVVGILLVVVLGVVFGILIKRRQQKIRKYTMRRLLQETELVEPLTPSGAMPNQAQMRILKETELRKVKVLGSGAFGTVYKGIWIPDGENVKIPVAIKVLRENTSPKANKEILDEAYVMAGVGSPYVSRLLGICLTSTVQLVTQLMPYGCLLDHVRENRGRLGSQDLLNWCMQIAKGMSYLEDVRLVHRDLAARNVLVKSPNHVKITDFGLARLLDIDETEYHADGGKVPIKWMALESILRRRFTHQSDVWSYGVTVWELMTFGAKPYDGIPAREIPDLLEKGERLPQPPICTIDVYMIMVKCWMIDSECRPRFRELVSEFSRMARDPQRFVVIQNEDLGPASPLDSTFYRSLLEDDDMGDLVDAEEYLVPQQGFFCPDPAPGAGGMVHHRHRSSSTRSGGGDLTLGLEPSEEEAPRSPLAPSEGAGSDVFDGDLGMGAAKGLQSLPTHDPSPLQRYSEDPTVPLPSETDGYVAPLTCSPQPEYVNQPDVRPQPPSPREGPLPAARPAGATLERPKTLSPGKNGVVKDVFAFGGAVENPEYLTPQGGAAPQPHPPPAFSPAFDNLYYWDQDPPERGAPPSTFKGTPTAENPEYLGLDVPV

[3] = target: Epidermal growth factor receptor (Homo sapiens, UniProt P00533, L858R/T790M); experiment: biochemical; assay type: cell-based, Sf21
Epidermal growth factor receptor (Homo sapiens, UniProt P00533, L858R/T790M), sequence (P00533 25-1210 T790M/L858R limits assumed): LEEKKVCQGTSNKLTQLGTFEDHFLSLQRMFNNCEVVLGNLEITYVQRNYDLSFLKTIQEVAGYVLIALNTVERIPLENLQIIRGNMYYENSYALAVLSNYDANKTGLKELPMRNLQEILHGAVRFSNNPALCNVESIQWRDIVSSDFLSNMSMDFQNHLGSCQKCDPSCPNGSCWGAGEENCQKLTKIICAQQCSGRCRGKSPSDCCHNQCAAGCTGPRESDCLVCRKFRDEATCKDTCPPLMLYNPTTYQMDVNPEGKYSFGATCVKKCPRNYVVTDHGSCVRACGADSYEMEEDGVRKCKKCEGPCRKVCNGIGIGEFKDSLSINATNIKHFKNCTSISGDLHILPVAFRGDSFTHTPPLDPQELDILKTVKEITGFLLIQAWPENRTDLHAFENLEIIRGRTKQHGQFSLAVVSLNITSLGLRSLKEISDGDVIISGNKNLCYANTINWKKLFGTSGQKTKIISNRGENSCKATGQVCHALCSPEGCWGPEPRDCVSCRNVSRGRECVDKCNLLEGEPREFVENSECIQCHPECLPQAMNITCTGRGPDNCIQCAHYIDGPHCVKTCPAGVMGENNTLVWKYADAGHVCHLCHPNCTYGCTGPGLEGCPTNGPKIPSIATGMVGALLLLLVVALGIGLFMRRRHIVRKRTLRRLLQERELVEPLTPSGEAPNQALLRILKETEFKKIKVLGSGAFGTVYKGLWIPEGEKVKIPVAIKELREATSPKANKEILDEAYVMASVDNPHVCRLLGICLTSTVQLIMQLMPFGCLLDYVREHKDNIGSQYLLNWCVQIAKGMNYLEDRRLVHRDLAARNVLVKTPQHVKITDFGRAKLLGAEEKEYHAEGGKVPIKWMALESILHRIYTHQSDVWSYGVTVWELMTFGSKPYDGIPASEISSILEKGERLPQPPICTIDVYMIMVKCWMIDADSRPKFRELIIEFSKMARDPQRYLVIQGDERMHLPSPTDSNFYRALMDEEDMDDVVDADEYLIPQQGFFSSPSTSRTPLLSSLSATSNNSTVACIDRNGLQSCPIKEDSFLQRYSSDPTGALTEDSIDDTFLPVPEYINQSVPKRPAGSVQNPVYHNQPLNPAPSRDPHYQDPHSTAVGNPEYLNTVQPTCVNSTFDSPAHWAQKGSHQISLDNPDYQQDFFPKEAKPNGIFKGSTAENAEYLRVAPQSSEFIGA

A549 = experiment: Antiproliferative activity against human A549 cells harboring wild-type EGFR after 72 hrs by EZ-Cytox assay; assay type: ADME, cell-based; details: A549, 72 h
CYP2B6 = target: T2, CYP2B6 (Homo sapiens, UniProt P20813); experiment: Inhibition of CYP2B6 in human liver microsomes assessed as residual activity at 10 uM using bupropion as substrate preincubated for 5 mins followed by NADPH addition and measured after 15 mins by LC-MS/MS analysis relative to control; assay type: ADME; details: probe bupropion, read-out: Activity
T2 sequence (P20813 whole entry): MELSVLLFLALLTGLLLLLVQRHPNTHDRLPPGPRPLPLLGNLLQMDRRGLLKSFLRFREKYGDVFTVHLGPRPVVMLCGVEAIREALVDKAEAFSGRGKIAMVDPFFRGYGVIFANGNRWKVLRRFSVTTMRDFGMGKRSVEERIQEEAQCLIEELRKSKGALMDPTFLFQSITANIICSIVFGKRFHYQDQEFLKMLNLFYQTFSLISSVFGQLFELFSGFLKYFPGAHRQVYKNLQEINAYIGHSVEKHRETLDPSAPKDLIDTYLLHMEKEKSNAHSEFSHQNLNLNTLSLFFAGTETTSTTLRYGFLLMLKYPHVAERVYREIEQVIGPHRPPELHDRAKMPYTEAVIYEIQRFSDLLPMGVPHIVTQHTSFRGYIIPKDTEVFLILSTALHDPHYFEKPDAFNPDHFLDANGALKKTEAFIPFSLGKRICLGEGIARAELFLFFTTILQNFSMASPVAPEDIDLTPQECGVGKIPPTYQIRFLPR

CYP2A6 = target: T3, CYP2A6 (Homo sapiens, UniProt P11509); experiment: Inhibition of CYP2A6 in human liver microsomes assessed as residual activity at 10 uM using coumarin as substrate preincubated for 5 mins followed by NADPH addition and measured after 15 mins by LC-MS/MS analysis relative to control; assay type: ADME; details: probe coumarin, read-out: Activity
T3 sequence (P11509 whole entry): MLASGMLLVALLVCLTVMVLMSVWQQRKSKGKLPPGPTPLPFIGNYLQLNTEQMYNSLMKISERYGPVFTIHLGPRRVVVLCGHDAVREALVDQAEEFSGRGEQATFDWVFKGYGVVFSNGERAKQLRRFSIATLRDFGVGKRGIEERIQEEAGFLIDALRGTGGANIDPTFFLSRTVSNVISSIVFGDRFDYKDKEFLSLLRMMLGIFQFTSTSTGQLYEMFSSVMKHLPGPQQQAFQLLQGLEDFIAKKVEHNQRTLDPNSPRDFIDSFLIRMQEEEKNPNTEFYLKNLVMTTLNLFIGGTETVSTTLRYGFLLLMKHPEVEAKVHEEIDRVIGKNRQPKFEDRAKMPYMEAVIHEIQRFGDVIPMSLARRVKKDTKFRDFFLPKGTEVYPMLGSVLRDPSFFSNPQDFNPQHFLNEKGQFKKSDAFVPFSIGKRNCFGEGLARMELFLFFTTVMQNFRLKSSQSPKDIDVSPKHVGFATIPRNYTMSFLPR

CYP2D6 = CYP2D6 (Homo sapiens, UniProt P10635); experiment: Inhibition of CYP2D6 in human liver microsomes assessed as residual activity at 10 uM using dextromethorphan as substrate preincubated for 5 mins followed by NADPH addition and measured after 15 mins by LC-MS/MS analysis relative to control; assay type: ADME; details: probe dextromethorphan, read-out: Activity
[4] = Safety index, ratio of compound IC50 to afatinib IC50 for antiproliferative activity against HER2-dependant human SKBR3 cells; assay type: cell-based; details: SK-BR-3 cells (HER2-dependent), read-out: Ratio IC50

Row | SMILES | IC50 (PC-9) | activity at 0.25 h, 10 µM (CYP2E1) | activity at 0.25 h, 10 µM (CYP2C19) | IC50 (SK-BR-3) | inhibition at 10 µM (hERG (KCNH2)) | activity at 0.25 h, 10 µM (CYP1A2) | IC50 [1] | IC50 (HepG2) | IC50 [2] | IC50 [3] | IC50 (A549) | activity at 0.25 h, 10 µM (CYP2B6) | activity at 0.25 h, 10 µM (CYP2A6) | activity at 0.25 h, 10 µM (CYP2D6) | selectivity ratio [4]
1 | C=CC(=O)Nc1cc2c(Nc3ccc(F)c(Cl)c3)ncnc2cc1OCc1cn(Cc2cccc(F)c2)nn1 | 0.9 nM | 59% | 53.5% | 115 nM | 20.7% | 52.5% | 68 nM | 29 µM | 209 nM | 4 nM | 5.5 µM | 67.1% | 91% | 14.9% | > 95
2 | C=CC(=O)Nc1cc2c(Nc3ccc(F)c(Cl)c3)ncnc2cc1OCc1cn(Cc2ccc(F)cc2)nn1 | 1 nM | 60.9% | 51.1% | 143 nM | 46.2% | 51.1% | 45 nM | 27 µM | 212 nM | 6 nM | 4.31 µM | 67.9% | 82.7% | 12.2% | > 95
3 | C=CC(=O)Nc1cc2c(Nc3ccc(F)c(Cl)c3)ncnc2cc1OCc1cn(Cc2ccc(Cl)cc2)nn1 | 0.9 nM | 63.4% | 56.4% | 266 nM | 33.6% | 60.8% | 62 nM | 60 µM | 225 nM | 12 nM | 2.04 µM | 78.8% | 89% | 24.4% | > 95
